Five compounds from ChEMBL document CHEMBL1150976, “The selectivity of protein kinase inhibitors: a further update” (Biochem J, 2007) can be followed below.

Test [1] has as its target MAP/microtubule affinity-regulating kinase 3 (Homo sapiens) (UniProt P27448). Put plainly: Percentage MARK3 activity remaining in the presence of 0.01uM inhibitor. The settings on record: filed as antagonist.
Test [2] deals with Mitogen-activated protein kinase 1 (Homo sapiens) (UniProt P28482). Put plainly: Percentage ERK2 activity remaining in the presence of 0.01uM inhibitor.
For test [3], the target named is Serine/threonine-protein kinase Chk2 (Homo sapiens) (UniProt O96017). Put plainly: Percentage CHK2 activity remaining in the presence of 0.01uM inhibitor.
Test [4] concerns the target T1, Serine/threonine-protein kinase Chk1 (Homo sapiens) (UniProt O14757).
T1 sequence (whole entry): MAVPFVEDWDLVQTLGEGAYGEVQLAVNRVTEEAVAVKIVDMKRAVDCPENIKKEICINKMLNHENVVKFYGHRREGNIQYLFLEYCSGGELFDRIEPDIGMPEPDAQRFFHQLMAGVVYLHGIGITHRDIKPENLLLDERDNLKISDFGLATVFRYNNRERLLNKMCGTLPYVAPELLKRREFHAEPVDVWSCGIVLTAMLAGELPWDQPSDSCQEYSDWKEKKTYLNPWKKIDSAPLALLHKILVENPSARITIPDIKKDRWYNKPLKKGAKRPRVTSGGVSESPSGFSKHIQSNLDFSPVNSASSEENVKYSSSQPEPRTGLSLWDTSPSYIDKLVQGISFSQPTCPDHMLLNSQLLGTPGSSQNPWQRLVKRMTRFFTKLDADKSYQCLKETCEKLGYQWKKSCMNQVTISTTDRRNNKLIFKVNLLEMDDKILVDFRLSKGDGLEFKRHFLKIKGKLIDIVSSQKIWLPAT
Briefly: Percentage CHK1 activity remaining in the presence of 25uM inhibitor.

The next test has as its target Aurora kinase B (Homo sapiens, UniProt Q96GD4). Briefly: Percentage Aurora B activity remaining in the presence of 25uM inhibitor.
In test [5] the target is Serine/threonine-protein kinase PLK1 (Homo sapiens, UniProt P53350). Put plainly: Percentage PLK1 activity remaining in the presence of 25uM inhibitor.
In test [6] the target is Cyclin-dependent kinase 2/cyclin A (Homo sapiens) (UniProt P24941+P20248+P78396). Briefly: Percentage CDK2-cyclinA activity remaining in the presence of 25uM inhibitor. The test is classed as protein-complex assay.
Test [7] concerns the target Myosin light chain kinase, smooth muscle (Homo sapiens, UniProt Q15746). Briefly: Percentage SmMLCK activity remaining in the presence of 25uM inhibitor.
The target in test [8] is T2, Serine/threonine-protein kinase Sgk1 (Homo sapiens) (UniProt O00141).
T2 sequence (whole entry): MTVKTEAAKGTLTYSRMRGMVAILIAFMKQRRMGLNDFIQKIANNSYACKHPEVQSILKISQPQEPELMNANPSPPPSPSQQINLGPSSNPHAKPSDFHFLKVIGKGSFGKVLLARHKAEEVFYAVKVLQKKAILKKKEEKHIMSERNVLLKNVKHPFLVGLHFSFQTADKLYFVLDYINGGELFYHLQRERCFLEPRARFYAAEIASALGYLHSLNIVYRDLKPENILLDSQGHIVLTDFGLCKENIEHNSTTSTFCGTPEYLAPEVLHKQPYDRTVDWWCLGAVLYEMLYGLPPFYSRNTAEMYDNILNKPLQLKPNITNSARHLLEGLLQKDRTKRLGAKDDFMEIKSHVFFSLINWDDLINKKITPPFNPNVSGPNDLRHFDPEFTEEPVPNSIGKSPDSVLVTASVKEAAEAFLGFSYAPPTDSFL
Put plainly: Percentage SGK1 activity remaining in the presence of 25uM inhibitor.

Test [9] has as its target T3, Dual specificity tyrosine-phosphorylation-regulated kinase 2 (Homo sapiens) (UniProt Q92630).
T3 sequence (whole entry): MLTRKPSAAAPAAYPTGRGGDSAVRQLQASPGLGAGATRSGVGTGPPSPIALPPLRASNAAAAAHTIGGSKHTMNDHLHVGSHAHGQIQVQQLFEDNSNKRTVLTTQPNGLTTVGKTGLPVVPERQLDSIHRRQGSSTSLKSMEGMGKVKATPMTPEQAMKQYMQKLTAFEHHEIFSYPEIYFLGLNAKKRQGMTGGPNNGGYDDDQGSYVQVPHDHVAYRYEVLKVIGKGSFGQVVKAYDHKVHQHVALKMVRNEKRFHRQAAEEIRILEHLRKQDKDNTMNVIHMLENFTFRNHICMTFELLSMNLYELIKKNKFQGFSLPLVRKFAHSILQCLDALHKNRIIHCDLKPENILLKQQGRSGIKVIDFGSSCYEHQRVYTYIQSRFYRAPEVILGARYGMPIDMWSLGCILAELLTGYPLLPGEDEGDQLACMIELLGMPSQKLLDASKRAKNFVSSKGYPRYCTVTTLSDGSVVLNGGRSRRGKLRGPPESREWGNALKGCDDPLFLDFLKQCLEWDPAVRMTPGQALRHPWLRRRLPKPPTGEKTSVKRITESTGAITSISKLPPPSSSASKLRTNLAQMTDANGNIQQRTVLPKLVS
Put plainly: Percentage DYRK2 activity remaining in the presence of 25uM inhibitor.

For test [10], the target named is Serine/threonine-protein kinase Chk2 (Homo sapiens) (UniProt O96017). Put plainly: Percentage CHK2 activity remaining in the presence of 25uM inhibitor.
Test [11] concerns the target T4, Serine/threonine-protein kinase BRSK2 (Homo sapiens) (UniProt Q8IWQ3).
T4 sequence (whole entry): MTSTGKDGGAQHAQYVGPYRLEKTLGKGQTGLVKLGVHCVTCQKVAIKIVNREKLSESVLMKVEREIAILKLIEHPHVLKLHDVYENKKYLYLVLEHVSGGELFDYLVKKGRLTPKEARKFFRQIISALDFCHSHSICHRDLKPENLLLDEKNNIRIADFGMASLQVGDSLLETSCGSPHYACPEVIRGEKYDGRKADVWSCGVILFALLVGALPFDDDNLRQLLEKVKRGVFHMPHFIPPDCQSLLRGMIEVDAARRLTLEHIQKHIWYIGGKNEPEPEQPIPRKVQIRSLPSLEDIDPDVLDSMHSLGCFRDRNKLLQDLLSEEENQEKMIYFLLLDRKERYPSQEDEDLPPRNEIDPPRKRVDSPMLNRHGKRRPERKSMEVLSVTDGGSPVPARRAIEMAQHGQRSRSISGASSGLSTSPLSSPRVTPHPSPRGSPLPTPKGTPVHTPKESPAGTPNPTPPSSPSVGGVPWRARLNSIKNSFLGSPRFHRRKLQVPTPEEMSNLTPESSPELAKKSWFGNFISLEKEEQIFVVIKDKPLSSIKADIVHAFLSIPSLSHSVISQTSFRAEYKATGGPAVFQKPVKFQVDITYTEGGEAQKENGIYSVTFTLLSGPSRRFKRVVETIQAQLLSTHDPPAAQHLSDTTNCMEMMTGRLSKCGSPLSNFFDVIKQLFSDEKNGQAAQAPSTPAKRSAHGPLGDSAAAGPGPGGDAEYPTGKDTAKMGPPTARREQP
Put plainly: Percentage BRSK2 activity remaining in the presence of 25uM inhibitor.

The target of test [12] is Casein kinase II (Homo sapiens) (UniProt P67870+P68400+P19784). Put plainly: Percentage CK2 activity remaining in the presence of 25uM inhibitor. The test is classed as protein-complex assay.
Test [13] addresses Ribosomal protein S6 kinase alpha-5 (Homo sapiens) (UniProt O75582). Put plainly: Percentage MSK1 activity remaining in the presence of 25uM inhibitor.

Structures are written as SMILES.

Chain of Serine/threonine-protein kinase Chk2 (Homo sapiens) (O96017 whole entry): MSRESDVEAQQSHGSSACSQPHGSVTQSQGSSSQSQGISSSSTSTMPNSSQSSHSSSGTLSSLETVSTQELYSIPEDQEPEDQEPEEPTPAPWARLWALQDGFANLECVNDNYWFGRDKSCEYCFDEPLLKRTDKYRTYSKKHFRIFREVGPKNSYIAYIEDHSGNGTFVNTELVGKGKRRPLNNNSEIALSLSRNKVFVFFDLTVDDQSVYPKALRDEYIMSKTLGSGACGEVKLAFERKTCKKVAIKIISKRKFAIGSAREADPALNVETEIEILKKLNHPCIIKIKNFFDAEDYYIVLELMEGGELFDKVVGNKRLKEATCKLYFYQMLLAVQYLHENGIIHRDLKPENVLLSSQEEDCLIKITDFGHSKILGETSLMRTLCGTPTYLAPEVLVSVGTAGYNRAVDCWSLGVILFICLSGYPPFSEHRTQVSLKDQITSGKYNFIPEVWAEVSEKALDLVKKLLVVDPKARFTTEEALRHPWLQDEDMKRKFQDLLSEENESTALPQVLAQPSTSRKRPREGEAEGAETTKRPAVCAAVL
Chain of MAP/microtubule affinity-regulating kinase 3 (Homo sapiens) (P27448 whole entry, looked up): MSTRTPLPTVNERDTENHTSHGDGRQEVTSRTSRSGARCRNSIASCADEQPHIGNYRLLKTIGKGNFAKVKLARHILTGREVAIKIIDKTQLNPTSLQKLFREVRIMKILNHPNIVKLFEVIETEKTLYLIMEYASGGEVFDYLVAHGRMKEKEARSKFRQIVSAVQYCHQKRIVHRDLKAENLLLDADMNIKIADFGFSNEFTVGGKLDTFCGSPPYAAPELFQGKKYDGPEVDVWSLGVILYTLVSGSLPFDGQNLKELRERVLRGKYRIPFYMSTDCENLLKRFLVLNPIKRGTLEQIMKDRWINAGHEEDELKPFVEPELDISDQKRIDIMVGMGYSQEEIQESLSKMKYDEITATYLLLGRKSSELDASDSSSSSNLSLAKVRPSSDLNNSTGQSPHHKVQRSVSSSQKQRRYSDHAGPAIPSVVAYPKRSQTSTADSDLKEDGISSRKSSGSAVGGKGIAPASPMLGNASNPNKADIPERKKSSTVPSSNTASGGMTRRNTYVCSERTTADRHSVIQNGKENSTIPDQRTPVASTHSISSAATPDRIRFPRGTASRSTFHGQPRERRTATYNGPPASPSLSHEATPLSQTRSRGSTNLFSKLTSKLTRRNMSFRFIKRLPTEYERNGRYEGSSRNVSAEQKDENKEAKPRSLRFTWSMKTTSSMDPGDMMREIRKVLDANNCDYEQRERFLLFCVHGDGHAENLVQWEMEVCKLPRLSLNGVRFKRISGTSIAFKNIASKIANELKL
Chain of Ribosomal protein S6 kinase alpha-5 (Homo sapiens) (O75582 whole entry, looked up): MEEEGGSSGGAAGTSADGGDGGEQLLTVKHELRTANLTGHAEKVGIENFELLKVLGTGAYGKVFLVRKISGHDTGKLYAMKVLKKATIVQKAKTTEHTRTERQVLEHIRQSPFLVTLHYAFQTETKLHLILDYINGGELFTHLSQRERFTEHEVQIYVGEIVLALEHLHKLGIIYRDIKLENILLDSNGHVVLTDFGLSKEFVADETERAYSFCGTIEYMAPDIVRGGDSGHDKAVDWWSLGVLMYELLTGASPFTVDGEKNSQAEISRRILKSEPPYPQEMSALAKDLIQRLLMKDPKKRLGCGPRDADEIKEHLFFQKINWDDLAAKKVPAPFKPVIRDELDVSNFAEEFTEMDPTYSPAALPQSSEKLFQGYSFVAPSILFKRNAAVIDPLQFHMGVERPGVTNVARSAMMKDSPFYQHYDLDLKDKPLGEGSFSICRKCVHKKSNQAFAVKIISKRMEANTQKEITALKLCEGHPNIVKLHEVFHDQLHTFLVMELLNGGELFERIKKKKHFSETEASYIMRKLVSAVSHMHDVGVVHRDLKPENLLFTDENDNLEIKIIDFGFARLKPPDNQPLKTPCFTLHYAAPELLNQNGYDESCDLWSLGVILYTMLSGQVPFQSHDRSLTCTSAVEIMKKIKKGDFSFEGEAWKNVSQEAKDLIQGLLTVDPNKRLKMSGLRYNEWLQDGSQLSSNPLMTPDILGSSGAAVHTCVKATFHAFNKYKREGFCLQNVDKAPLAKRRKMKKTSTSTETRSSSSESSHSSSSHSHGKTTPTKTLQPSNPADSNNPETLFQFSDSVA
Chain of Mitogen-activated protein kinase 1 (Homo sapiens) (P28482 whole entry): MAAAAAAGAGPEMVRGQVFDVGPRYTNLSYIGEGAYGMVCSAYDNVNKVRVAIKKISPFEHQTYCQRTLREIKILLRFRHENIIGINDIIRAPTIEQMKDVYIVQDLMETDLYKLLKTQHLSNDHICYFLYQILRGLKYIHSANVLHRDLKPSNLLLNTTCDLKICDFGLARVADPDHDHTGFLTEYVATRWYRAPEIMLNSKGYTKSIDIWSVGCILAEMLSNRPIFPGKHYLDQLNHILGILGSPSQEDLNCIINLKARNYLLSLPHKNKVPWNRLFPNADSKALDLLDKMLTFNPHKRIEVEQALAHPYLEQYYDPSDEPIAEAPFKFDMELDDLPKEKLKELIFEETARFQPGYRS
Chain of Myosin light chain kinase, smooth muscle (Q15746 whole entry): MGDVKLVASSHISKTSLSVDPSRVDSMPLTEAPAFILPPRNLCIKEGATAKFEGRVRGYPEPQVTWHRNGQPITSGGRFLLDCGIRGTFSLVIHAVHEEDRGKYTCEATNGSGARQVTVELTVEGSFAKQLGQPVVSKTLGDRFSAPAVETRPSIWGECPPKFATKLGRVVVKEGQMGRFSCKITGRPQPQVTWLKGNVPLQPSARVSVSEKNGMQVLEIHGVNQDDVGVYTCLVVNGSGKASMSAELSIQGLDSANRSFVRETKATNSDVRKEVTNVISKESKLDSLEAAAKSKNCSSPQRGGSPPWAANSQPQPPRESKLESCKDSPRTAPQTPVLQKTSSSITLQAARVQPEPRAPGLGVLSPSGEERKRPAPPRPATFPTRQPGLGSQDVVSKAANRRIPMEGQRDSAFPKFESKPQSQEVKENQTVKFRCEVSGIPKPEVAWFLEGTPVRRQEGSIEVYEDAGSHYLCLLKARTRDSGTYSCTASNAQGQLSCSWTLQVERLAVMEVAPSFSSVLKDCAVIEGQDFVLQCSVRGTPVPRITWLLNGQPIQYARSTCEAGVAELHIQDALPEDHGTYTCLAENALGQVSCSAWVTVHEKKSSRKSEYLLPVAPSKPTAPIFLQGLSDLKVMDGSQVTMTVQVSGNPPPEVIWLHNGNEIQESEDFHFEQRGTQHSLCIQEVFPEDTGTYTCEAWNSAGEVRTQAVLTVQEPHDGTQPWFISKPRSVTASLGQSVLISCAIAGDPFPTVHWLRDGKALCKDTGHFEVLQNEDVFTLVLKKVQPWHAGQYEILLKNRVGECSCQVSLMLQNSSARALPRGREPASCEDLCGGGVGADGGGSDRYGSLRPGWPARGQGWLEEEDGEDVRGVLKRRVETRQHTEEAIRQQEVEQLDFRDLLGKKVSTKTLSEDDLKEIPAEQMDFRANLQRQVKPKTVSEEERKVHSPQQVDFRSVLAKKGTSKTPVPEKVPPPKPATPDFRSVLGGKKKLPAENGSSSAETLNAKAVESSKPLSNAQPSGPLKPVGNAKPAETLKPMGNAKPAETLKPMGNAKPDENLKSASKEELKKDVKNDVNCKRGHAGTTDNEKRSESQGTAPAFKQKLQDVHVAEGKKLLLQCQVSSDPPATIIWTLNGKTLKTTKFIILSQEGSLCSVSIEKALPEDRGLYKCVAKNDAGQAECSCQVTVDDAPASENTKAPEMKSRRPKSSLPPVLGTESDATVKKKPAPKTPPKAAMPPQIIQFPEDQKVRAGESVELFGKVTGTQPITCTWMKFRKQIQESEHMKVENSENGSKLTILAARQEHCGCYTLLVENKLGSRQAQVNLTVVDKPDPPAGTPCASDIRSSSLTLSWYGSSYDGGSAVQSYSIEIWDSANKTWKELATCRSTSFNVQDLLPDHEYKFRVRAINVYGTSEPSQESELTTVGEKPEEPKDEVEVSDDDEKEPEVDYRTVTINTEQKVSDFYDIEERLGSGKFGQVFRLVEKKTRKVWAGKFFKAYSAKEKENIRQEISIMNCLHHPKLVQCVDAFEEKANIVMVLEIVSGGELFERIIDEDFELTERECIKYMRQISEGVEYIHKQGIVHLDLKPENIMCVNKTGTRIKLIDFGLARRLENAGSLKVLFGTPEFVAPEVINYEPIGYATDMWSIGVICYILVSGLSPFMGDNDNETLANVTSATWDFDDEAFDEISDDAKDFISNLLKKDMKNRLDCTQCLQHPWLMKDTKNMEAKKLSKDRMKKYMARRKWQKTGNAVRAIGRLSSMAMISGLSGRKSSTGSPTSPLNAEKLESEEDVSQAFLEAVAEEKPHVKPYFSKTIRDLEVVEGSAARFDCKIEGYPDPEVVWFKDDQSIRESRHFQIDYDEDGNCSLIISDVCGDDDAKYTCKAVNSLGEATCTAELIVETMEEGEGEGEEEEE
Chain of Serine/threonine-protein kinase PLK1 (P53350 whole entry): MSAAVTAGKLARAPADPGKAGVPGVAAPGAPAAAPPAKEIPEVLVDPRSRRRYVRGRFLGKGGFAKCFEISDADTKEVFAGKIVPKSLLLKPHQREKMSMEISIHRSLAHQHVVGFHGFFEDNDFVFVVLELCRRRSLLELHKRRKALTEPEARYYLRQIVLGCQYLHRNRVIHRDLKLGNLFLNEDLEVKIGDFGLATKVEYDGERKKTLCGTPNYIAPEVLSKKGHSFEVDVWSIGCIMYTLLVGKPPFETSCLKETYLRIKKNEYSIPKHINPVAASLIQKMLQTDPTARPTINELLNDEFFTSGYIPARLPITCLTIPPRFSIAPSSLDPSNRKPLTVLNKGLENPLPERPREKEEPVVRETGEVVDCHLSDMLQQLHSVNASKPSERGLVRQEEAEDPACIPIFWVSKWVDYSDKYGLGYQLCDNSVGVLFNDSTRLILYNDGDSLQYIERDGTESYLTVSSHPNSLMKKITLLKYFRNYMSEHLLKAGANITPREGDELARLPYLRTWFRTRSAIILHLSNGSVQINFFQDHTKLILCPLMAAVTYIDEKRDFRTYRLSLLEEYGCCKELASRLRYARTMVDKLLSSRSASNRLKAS

In the case of `O=C(NCCCNc1nc(Nc2cccc(NC(=O)N3CCCC3)c2)ncc1I)c1cccs1`, the Activity in test [1] is 12%; in test [2] it was 88%; in test [3], 91%.

Turning to `COc1cc(OC)c(/C=C2/C(=O)Nc3ccccc32)c(OC)c1`, the Activity was found to be 99% in test [4]; 75% at Aurora kinase B; 95% in [5]; 83% in [6]; 70% in test [7]; 79% in test [8]. In addition, the Activity is 99% in test [9]; 76% in test [10]; 88% in [11]; 97% in test [12]; 88% in test [13].

With `CN[C@@H]1C[C@H]2O[C@@](C)([C@@H]1OC)n1c3ccccc3c3c4c(c5c6ccccc6n2c5c31)C(=O)N[C@H]4O` (stereo in doubt), the figures for the Activity in test [1] and in [3] were 6% and 96%, respectively.

As for `NCCNS(=O)(=O)c1ccc(Cl)c2ccncc12`, the Activity in test [4] was 86%; at Aurora kinase B, 78%; in test [5], 81%; in [6], 62%; in [7] it was 84%; in test [8] (filed as antagonist), 25%. The Activity in [9] was 76%; in test [10], 64%; in [11] (filed as antagonist) it was 42%; in test [12], 65%; in [13] (filed as antagonist), 42%.

On to `Cc1n[nH]c2ccc(-c3cncc(OC[C@@H](N)Cc4c[nH]c5ccccc45)c3)cc12`, for which, in test [2], the Activity is 78%.
